Laboratory results: publication PMC4476725 (PLoS Pathogens, 2015)
Where two headings read alike, the source gives them in different places.

Columns and labels:
[1] = tested on: RSV A2; assay: RSV inhibition by qRT-PCR in HEp-2 cells, RSV A2 strain; assay type: cell-based; details: human respiratory syncytial virus
[2] = tested on: RSV B1; assay: RSV inhibition by qRT-PCR in HEp-2 cells, RSV B1 strain; assay type: cell-based; details: human respiratory syncytial virus, 120 h, 5 days, n = 3, read-out: EC50, inhibition of RNA replication of RSV B1
[3] = tested on: RSV A and B clinical isolates; assay: microbe, parasite or virus in culture; assay type: cell-based; details: human respiratory syncytial virus
[4] = tested on: RSV A2; assay: Three-dimensional lung model, primary human tracheal/bronchial epithelial cells infected with RSV A2; assay type: cell-based; details: human respiratory syncytial virus, Epithelial cell
[5] = target: QUAD-mutant RSV polymerase (Human respiratory syncytial virus A, UniProt P28887, A789V/I796V/L795I/M628L); assay type: cell-based
[6] = tested on: Parainfluenza virus type-3; assay: PIV-3 antiviral assay in A549 cells; assay type: cell-based, human PIV-3 C243 strain; details: 168 h, 7 days, qRT-PCR
[7] = tested on: Vesicular stomatitis virus; assay: microbe, parasite or virus in culture; assay type: cell-based; details: A549, 48 h
[8] = tested on: influenza strain A/WSN/33 (H1N1); assay: Influenza assay in A549 cells (neuraminidase readout); assay type: cell-based; details: Influenza virus, 20h
[9] = tested on: HCV replicon; assay: microbe, parasite or virus in culture; assay type: cell-based; details: Hepatitis C virus
[10] = tested on: Rhinovirus 1b; assay: Human rhinovirus assay in HeLa-OHIO cells (CPE); assay type: cell-based; details: Enterovirus
[11] = tested on: RSV replicon; assay: RSV subgenomic replicon assay (luciferase); assay type: cell-based, Respiratory syncytial virus
Description: The RSV subgenomic replicon (Apath, Brooklyn, NY, USA) was used as previously described. The HeLa-derived cells containing the stable RSV replicon were cultured in DMEM containing 4500 mg/L D-glucose, L-glutamine, and 110 mg/L sodium pyruvate. The medium was further supplemented with 10% (v/v) FBS (Mediatech), 1% (v/v) penicillin/streptomycin (Mediatech), and 10 μg/mL of Blasticidin (BSD) (Invivogen). Cells were maintained at 37°C in a humidified 5% CO2 atmosphere. On the first day, 5000 RSV replicon cells per well were plated in a 96-well plate. On the following day, compounds to be tested were solubilized in 100% DMSO to 100 × the desired final testing concentration. Cells were incubated with compounds for 7 days at 37°C in a 5% CO2 atmosphere before measurement of the luciferase readout. Cell viability (CC50) was measured with a CellTiter-Glo cell proliferation assay (Promega).

[12] = tested on: A549
[13] = in vitro; details: human
[14] = in vitro; details: human; remark: listed apart in the source
[15] = in vitro; details: human; remark: listed apart in the source
[16] = in vitro; details: human; remark: listed apart in the source
[17] = target: RSV RNP complex (Human respiratory syncytial virus A, UniProt P28887); assay: biochemical; assay type: biochemical
[18] = target: QUAD RNP complex (Human respiratory syncytial virus A, UniProt P28887, A789V/I796V/L795I/M628L); assay type: biochemical
[19] = target: PIV-1 polymerase (Human respirovirus 1, UniProt Q8QT26); assay: biochemical; details: Parainfluenza virus type-1 polymerase
[20] = target: IAV polymerase (Influenza A virus, UniProt P03431); assay: IAV polymerase gel-based assay; assay type: biochemical
[21] = target: HCV polymerase (Hepatitis C virus genotype 1b, UniProt Q9WMX2); assay: HCV polymerase inhibition assay; assay type: biochemical
[22] = target: T1, wild-type RSV L-P RNA polymerase complex (Human respiratory syncytial virus A, UniProt P28887); assay type: biochemical; details: Fig 5A
T1 construct: made in house; host or cells: insect cells

[23] = target: RSV polymerase QUAD mutant (Human respiratory syncytial virus A, UniProt P28887, A789V/I796V/L795I/M628L); assay: Single nucleotide incorporation by recombinant RSV L-P polymerase, QUAD mutant; assay type: biochemical; details: recombinant L-P enzymes
[24] = target: human mitochondrial RNA polymerase (Homo sapiens, UniProt O00411); assay: DdRp assay with human mitochondrial RNA polymerase, single turnover; assay type: biochemical; details: 100 μM of each NTP
[25] = tested on: RSV A2; assay: African Green monkey efficacy model; assay type: in vivo, African Green monkeys (Chlorocebus sabaeus); details: oral BID, 200 mg/kg loading then 50 mg/kg, 6 days
[26] = design: method as in PMID 25667954; details: cited from earlier work
[27] = HEp-2, Isolate A1997-12-35, RSV A
[28] = HEp-2, Isolate A1998-03-02, RSV A
[29] = HEp-2, Isolate A1998-12-21, RSV A
[30] = HEp-2, Isolate A2000-03-04, RSV A
[31] = HEp-2, Isolate A2001-02-20, RSV A
[32] = HEp-2, Isolate A2001-03-12, RSV A

Nc1ccn([C@@H]2O[C@@](CO)(CCl)[C@@H](O)[C@H]2F)c(=O)n1 [ALS-8112, 2'-fluoro-4'-chloromethyl (2'F-4'ClCH2) cytidine]
EC50 ([1]; 120 h, HEp-2 cells, 5 days, qRT-PCR, n = 3, read-out: EC50, inhibition of RNA replication of RSV A2): 153 ± 76 nM
EC50 ([1]; HEp-2, read-out: EC50): 150 nM
EC50 [2]: 132 ± 55 nM
EC50 ([3]; HEp-2, Isolate 1144, RSV B): 290 ± 20 nM
EC90 ([3]; HEp-2, Isolate 1144, RSV B): 1470 ± 220 nM
EC50 ([3]; HEp-2, Isolate 1262, RSV B): 110 ± 30 nM
EC90 ([3]; HEp-2, Isolate 1262, RSV B): 2180 ± 270 nM
EC50 ([3]; HEp-2, Isolate 9320, RSV B): 90 ± 30 nM
EC90 ([3]; HEp-2, Isolate 9320, RSV B): 960 ± 160 nM
EC50 ([3]; HEp-2, Isolate 18537, RSV B): 210 ± 60 nM
EC90 ([3]; HEp-2, Isolate 18537, RSV B): 990 ± 220 nM
EC50 [3, 27]: 180 ± 40 nM
EC90 [3, 27]: 2460 ± 150 nM
EC50 [3, 28]: 260 ± 60 nM
EC90 [3, 28]: 2150 ± 270 nM
EC50 [3, 29]: 90 ± 20 nM
EC90 [3, 29]: 1110 ± 540 nM
EC50 [3, 30]: 180 ± 20 nM
EC90 [3, 30]: 2180 ± 240 nM
EC50 [3, 31]: 100 ± 10 nM
EC90 [3, 31]: 1100 ± 530 nM
EC50 [3, 32]: 450 ± 70 nM
EC90 [3, 32]: 2330 ± 350 nM
EC50 ([3]; HEp-2, Isolate Pep 121, RSV B): 320 ± 70 nM
EC90 ([3]; HEp-2, Isolate Pep 121, RSV B): 2070 ± 430 nM
EC50 ([4]; Disease: Asthma, read-out: EC50): 730 nM
EC90 ([4]; Disease: Asthma, read-out: EC90): 2700 nM
EC50 ([4]; donor one, Disease: None, read-out: EC50): 370 nM
EC90 ([4]; donor one, Disease: None, read-out: EC90): 2700 nM
EC50 ([4]; donor two, Disease: None, read-out: EC50): 90 nM
EC90 ([4]; donor two, Disease: None, read-out: EC90): 1300 nM
EC50 ([4]; range over human donor cells (n = 3), read-out: EC50, RSV RNA replication in donor cells): 90 to 730 nM
EC90 ([4]; range over human donor cells (n = 3), read-out: EC90, RSV RNA replication in donor cells): 1300 to 2700 nM
maximum inhibition, QUAD-mutant minigenome [5]: about 60%
EC50 [6]: 1300 nM
EC50 [7]: 3.4 µM
EC50 [8]: > 100 µM
EC50 ([9]; Huh-7, HCV replicon, read-out: HCV EC50): > 100 µM
EC50 ([9]; Huh-7 replicon, read-out: EC50): > 100 µM
EC50 [10]: > 100 µM
EC50 ([11]; human respiratory syncytial virus, RSV replicon): 150 nM
CC50 ([12]; A549 cells, Influenza virus row): > 100 µM
CC50 ([12]; human): > 100 µM
CC50 [13]: > 100 µM
CC50 [14]: > 100 µM
CC50 [15]: > 100 µM
CC50 [16]: > 100 µM

Nc1ccn([C@@H]2O[C@](CCl)(CI)[C@@H](O)[C@H]2F)c(=O)n1 [ALS-8112-I, 4’-Chloromethyl-2’,5’-dideoxy-2’-fluoro-5’-iodocytidine]
inhibition of luciferase activity in the RSV replicon (in words) [11]: did not significantly inhibit

Nc1ccn([C@@H]2O[C@](CCl)(COP(=O)(O)OP(=O)(O)OP(=O)(O)O)[C@@H](O)[C@H]2F)c(=O)n1 [ALS-8112-TP, 2'-Fluoro-4'-Chloromethyl-Cytidine Triphosphate]
inhibition of RSV RNP complex (in words) ([17]; Fig 5B): efficiently inhibit RSV
mode of inhibition of RSV RNP complex ([17]; NTP competition, 1 or 100 μM NTP, 30 μM inhibitor): competitive inhibitor of cytidine monophosphate (CMP) incorporation
viral RNA transcription activity inhibited (in words) ([17]; crude RNP complex from virus-infected cells): inhibited
inhibition of RdRp activity of the QUAD RNP complex [18]: 57%
loss in inhibition potency compared to the wild-type protein [18]: 145 fold
IC50 [19]: 2300 nM
IC50 ([20]; Influenza virus polymerase, based on a single 100 μM concentration): > 100 µM
inhibition at 100 µM ([20]; at 100 μM): 20.5%
inhibition of HCV polymerase (in words) ([21]; Fig 5B): not HCV polymerase
IC50 ([21]; Hepatitis C virus polymerase, read-out: IC50): > 33 µM
IC50 ([21]; second symbol of RSV / HCV, read-out: HCV polymerase inhibition class (IC50)): > 10 µM
substrate and chain termination profile with recombinant RSV polymerase (in words) [22]: both substrates and chain terminators
increase in discrimination, QUAD vs WT (resistance level) [23]: 4.6 fold
recognition as substrate by human mitochondrial RNA polymerase (in words) [24]: not recognized as a substrate

CC(C)C(=O)OC[C@@]1(CCl)O[C@@H](n2ccc(N)nc2=O)[C@H](F)[C@@H]1OC(=O)C(C)C [ALS-8176, 4'-chloromethyl-2'-deoxy-3',5'-di-O-isobutyryl-2'-fluorocytidine]
difference in RSV RNA titers, vehicle vs treated, BAL ([25]; end of treatment): > 4 log10 copies/mL
difference in RSV RNA titers, vehicle vs treated, nasopharyngeal (NP) swab ([25]; end of treatment): about 3 log10 copies/mL
RSV RNA titer in bronchoalveolar lavage (BAL) samples ([25]; end of treatment (Day 5 post-infection), all four animals, LOD 50 copies/mL): < 50 copies/mL
oral bioavailability [26]: high
